For test [1], the target named is SNAP-hSPR (sepiapterin reductase, SPR) (Homo sapiens, UniProt P35270). Put plainly: biochemical. The following applies: terbium labelled SNAP-hSPR / SSZ labelled SNAP-EGFP; read-out: hTR-FRET IC50. Format: binding.
For test [2], the system named is BH4 production in human peripheral blood mononuclear cells (PBMCs). Put plainly: hPBMC assay, inhibition of BH4 production by LC-MS (anti-CD3/anti-CD28 stimulated). Format: cell-based. The conditions noted are these: PBMC, read-out: hPBMC IC50.
In test [3] the test system is BH4 levels in SK-N-BE (2) cells. Put plainly: SKN-N-BE (2) cellular assay, BH4 levels by LC-MS. Format: cell-based.
Setting [4] is: Homo sapiens, SKNBE2, read-out: SK-N-BE(2) IC50, SK-N-BE (2) cells, BH4 levels by LC-MS.

Read-outs that look alike come from different tables or passages of the source.

SNAP-hSPR (sepiapterin reductase, SPR), sequence (P35270 whole entry): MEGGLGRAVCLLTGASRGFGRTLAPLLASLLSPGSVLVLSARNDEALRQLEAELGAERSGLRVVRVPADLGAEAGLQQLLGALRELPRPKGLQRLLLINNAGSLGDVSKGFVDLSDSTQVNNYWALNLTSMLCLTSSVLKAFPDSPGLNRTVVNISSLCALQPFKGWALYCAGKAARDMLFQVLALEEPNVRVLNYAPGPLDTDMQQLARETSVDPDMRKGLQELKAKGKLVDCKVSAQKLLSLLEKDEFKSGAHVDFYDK

What is called IC50 is the midpoint of a concentration-inhibition curve. For `Cc1c(C(=O)N2CCN(CC(F)(F)F)CC2)cnn1-c1nc2[nH]ccc2c(=O)[nH]1` [Q-1256], the 50% inhibitory concentration (IC50) in test [1] was determined as 30 nM; in test [2], 330 nM.
`Cc1c(C(=O)N2CCc3nc(-c4ccc(Cl)cc4)sc3C2)cnn1-c1nn2cccc2c(=O)[nH]1` [Q-1146]: the figures for the IC50 in test [1] and in test [2] were 5 nM and 380 nM, respectively.
Taken in the same sequence, the figures for `Cc1c(C(=O)N2CCN(S(C)(=O)=O)CC2)cnn1-c1nn2cccc2c(=O)[nH]1` [Q-1539] were 4 nM and 780 nM.
As for `Cc1c(C(=O)N2CCN(S(=O)(=O)c3cccc4cccnc34)CC2)cnn1-c1nn2cccc2c(=O)[nH]1` [Q-1859], the concentration for half-maximal inhibition (IC50) in test [1] came out at 1 nM; in test [2], 160 nM.
Take `Cc1c(C(=O)N2CCN(S(=O)(=O)c3cccs3)CC2)cnn1-c1nn2cccc2c(=O)[nH]1` [Q-1821]: the figures for the IC50 in test [1] and in test [2] were 1 nM and 130 nM, respectively.
Take `Cc1c(C(=O)N2CCN(c3ncc(-c4ccccc4Cl)o3)CC2)cnn1-c1nn2cccc2c(=O)[nH]1` [Q-1151]: the results for the IC50 in test [1] and in test [2] were 8 nM and 310 nM, respectively.
The matching figures for `CC[C@@H](C#N)C1CCN(C(=O)c2cnn(-c3nc4c(c(=O)[nH]3)CCC4)c2C)CC1` [Q-1072]: 2 nM and 55 nM.
As for `Cc1c(C(=O)N2CCC(n3ccnc3Cl)CC2)cnn1-c1nn2cccc2c(=O)[nH]1` [Q-1232], the figures for the IC50 in test [1] and in test [2] were 1 nM and 56 nM, respectively.
Taken in the same sequence, the figures for `Cc1c(C(=O)N2CCN(S(=O)(=O)c3c(Cl)cccc3Cl)CC2)cnn1-c1nn2cccc2c(=O)[nH]1` [Q-1836] were 1 nM and 270 nM.
`Cc1c(C(=O)N2CCN(C(C)C(F)(F)F)CC2)nnn1-c1nn2cccc2c(=O)[nH]1` (stereo not shown) [Q-1889]: the IC50 in test [1] was found to be 1 nM; in test [2] it was 36 nM.
Take `Cc1c(C(=O)N2CCN(S(=O)(=O)c3ccc(Cl)s3)CC2)cnn1-c1nn2cccc2c(=O)[nH]1` [Q-1842]: the results for the IC50 in test [1] and in test [2] were 1 nM and 150 nM, respectively.
Taken in the same sequence, the figures for `Cc1c(C(=O)N2CCC(c3noc(C(F)(F)F)n3)CC2)cnn1-c1nn2cccc2c(=O)[nH]1` [Q-1074] were 1 nM and 22 nM.
Turning to `Cc1c(C(=O)N2CC(N3CCC(F)(F)C3)C2)nnn1-c1nn2cccc2c(=O)[nH]1` [Q-1185], the 50% inhibitory concentration (IC50) is 1 nM in test [1] and 110 nM in test [2].
Consider `Cc1c(C(=O)N2CCN(c3nnc(C(F)(F)F)o3)CC2)cnn1-c1nn2cccc2c(=O)[nH]1` [Q-1145], for which the half-inhibitory concentration (IC50) in test [1] is 3 nM; in test [2], 190 nM.
Take `Cc1c(C(=O)N2CCC3(CC2)CC3C(=O)N2CCOCC2)cnn1-c1nc2c(c(=O)[nH]1)CCC2` (stereo not shown) [Q-1077]: the IC50 in test [1] turned out to be 5 nM; in test [2], 160 nM.
On to `Cc1c(C(=O)N2CCN(c3nc(-c4ccccc4Cl)cs3)CC2)cnn1-c1nn2cccc2c(=O)[nH]1` [Q-1152], for which the results for the half-maximal inhibitory concentration (IC50) in test [1] and in test [2] were 8 nM and 380 nM, respectively.
In the case of `Cc1nn(-c2nn3cccc3c(=O)[nH]2)cc1C(=O)N1CC2(C1)CC(F)(F)C2` [Q-1239], the 50% inhibitory concentration (IC50) in test [1] worked out at 2 nM; in test [2] it was 27 nM.
Consider `Cc1c(C(=O)N2CCN(c3nc(-c4ccc(Cl)nc4)cs3)CC2)cnn1-c1nn2cccc2c(=O)[nH]1` [Q-1179], for which the values for the half-inhibitory concentration (IC50) in test [1] and in test [2] were 2 nM and 110 nM, respectively.
Regarding `Cc1c(C(=O)N2CCC(c3nc(-c4cccnc4)cs3)CC2)cnn1-c1nn2cccc2c(=O)[nH]1` [Q-1097], the IC50 amounted to 1 nM in test [1] and 24 nM in test [2].
The matching figures for `Cc1c(C(=O)N2CC3CC(C2)N3CC(F)(F)F)cnn1-c1nc2cc[nH]c2c(=O)[nH]1` [Q-1291]: 200 nM and 2400 nM.
For `Cc1c(C(=O)N2CC(N3CC(C(F)(F)F)C3)C2)cnn1-c1nn2cccc2c(=O)[nH]1` [Q-1082], the IC50 was found to be 4 nM in test [1] and 120 nM in test [2].
Take `Cc1c(C(=O)N2CC(c3ccnc(C(F)F)c3)C2)cnn1-c1nn2cccc2c(=O)[nH]1` [Q-2008]: the results for the 50% inhibitory concentration (IC50) in test [1] and in test [2] were 2 nM and 300 nM, respectively.
As to `Cc1c(C(=O)N2C3CCC2CN(C2CCC2)C3)cnn1-c1nn2cccc2c(=O)[nH]1` [Q-1114], the values for the 50% inhibitory concentration (IC50) in test [1] and in test [2] were 1 nM and 24 nM, respectively.
Take `Cc1c(C(=O)N2CCc3[nH]ncc3C2)cnn1-c1nn2cccc2c(=O)[nH]1` [Q-1932]: the 50% inhibitory concentration (IC50) in test [1] is 3 nM; in test [2], 2700 nM.
For the compound `Cc1c(C(=O)N2CCC(c3nc(C(F)(F)F)cs3)CC2)cnn1-c1nn2cccc2c(=O)[nH]1` [Q-1108], the IC50 in test [1] amounted to 1 nM; in test [2] it was 50 nM.
`O=C(c1cn(-c2nn3cccc3c(=O)[nH]2)nn1)N1CCN(CC(F)(F)F)CC1` [Q-1223]: the values for the IC50 in test [1] and in test [2] were 3 nM and 24 nM, respectively.
On to `Cc1c(C(=O)N2CCN(c3nc(-c4ccncc4)cs3)CC2)cnn1-c1nn2cccc2c(=O)[nH]1` [Q-1182], for which the IC50 amounted to 1 nM in test [1] and 48 nM in test [2].
Turning to `Cc1c(C(=O)N2CC(c3cncc(F)c3)C2)cnn1-c1nn2cccc2c(=O)[nH]1` [Q-1129], the IC50 in test [1] turned out to be 2 nM; in test [2], 50 nM.
Turning to `Cc1c(C(=O)N2CCC(C(CCF)C(F)(F)F)CC2)cnn1-c1nn2cccc2c(=O)[nH]1` (stereo not shown) [Q-1141], the results for the half-maximal inhibitory concentration (IC50) in test [1] and in test [2] were 1 nM and 19 nM, respectively.
Taken in the same sequence, the figures for `Cc1c(C(=O)N2CCN(c3ncc(-c4ccncc4)s3)CC2)cnn1-c1nn2cccc2c(=O)[nH]1` [Q-1235] were 5 nM and 18 nM.
For the compound `CCC(C#N)C1(F)CCN(C(=O)c2cnn(-c3nc4c(c(=O)[nH]3)CCC4)c2C)CC1` (stereo not shown) [Q-1102], the IC50 in test [1] is 1 nM; in test [2], 58 nM.
`O=C(c1cnn(-c2nn3cc(F)cc3c(=O)[nH]2)c1)N1CCC(C(F)(F)F)CC1` [Q-0616, 6-fluoro-2-(4-(4-(trifluoromethyl)piperidine-1-carbonyl)-1H-pyrazol-1-yl)pyrrolo[1,2-f][1,2,4]triazin-4(3H)-one]: the concentration for half-maximal inhibition (IC50) in test [1] was found to be 2 nM; in test [3] (setting [4]) it was 100 nM.
For `CC(C)(C#N)C1CCN(C(=O)c2cnn(-c3nc4c(c(=O)[nH]3)CCC4)c2)CC1` [Q-0710], the figures for the half-maximal inhibitory concentration (IC50) in test [1] and in test [3] (setting [4]) were 2 nM and 200 nM, respectively.
On to `Cc1c(C(=O)N2C[C@H]3CN(C(=O)OC(C)(C)C)C[C@H]32)cnn1-c1nn2cccc2c(=O)[nH]1` [Q-0842], for which the values for the half-inhibitory concentration (IC50) in test [1] and in test [3] (setting [4]) were 2 nM and 700 nM, respectively.
For `Cc1c(C(=O)N2CCc3ccccc3C2)cnn1-c1nc(C(F)(F)F)cc(=O)[nH]1` [Q-0393], the 50% inhibitory concentration (IC50) in test [1] is 6 nM; in test [3] (setting [4]), 800 nM.
Regarding `Cc1cc(=O)[nH]c(-n2cc(C(=O)N3CCc4ccccc4C3)nn2)n1` [Q-0312, 6-methyl-2-[4-(1,2,3,4-tetrahydroisoquinoline-2-carbonyl)-1H-1,2,3-triazol-1-yl]-3,4-dihydropyrimidin-4-one], the half-inhibitory concentration (IC50) in test [1] stood at 20 nM; in test [3] (setting [4]), 10000 nM.
Take `Cc1c(C(=O)N2CC3CC(C2)C3(F)F)cnn1-c1nn2cccc2c(=O)[nH]1` [Q-0799]: the results for the IC50 in test [1] and in test [3] (setting [4]) were 1 nM and 300 nM, respectively.
Consider `Cc1cc(=O)[nH]c(-n2ncc(C(=O)NCC(F)(F)C(F)(F)F)c2C)n1` [Q-0364], for which the half-inhibitory concentration (IC50) in test [1] is 70 nM; in test [3] (setting [4]) it was 16000 nM.
Taken in the same sequence, the figures for `Cc1c(C(=O)N2CCC3C(C2)C3C(F)(F)F)cnn1-c1nn2cccc2c(=O)[nH]1` (stereo not shown) [Q-0844] were 1 nM and 200 nM.
For the compound `O=C(c1cnn(-c2nn3cccc3c(=O)[nH]2)c1)N1CCC(CC(F)(F)F)CC1` [Q-0713], the IC50 is 1 nM in test [1] and 200 nM in test [3] (setting [4]).
`Cc1c(C(=O)N2CCN(C(=O)OC(C)(C)C)CC2)cnn1-c1nc2c(c(=O)[nH]1)CCC2` [Q-0723]: the values for the IC50 in test [1] and in test [3] (setting [4]) were 3 nM and 200 nM, respectively.
With `Cc1[nH]c2ccccc2c1C1CCN(C(=O)c2cnn(-c3nc4c(c(=O)[nH]3)CCC4)c2C)CC1` [Q-0611], the IC50 in test [1] turned out to be 4 nM; in test [3] (setting [4]), 29 nM.
Take `Cc1nc(-n2ncc(C(=O)N3c4ccccc4CC3C)c2C)[nH]c(=O)c1C` (stereo not shown) [Q-0404]: the half-maximal inhibitory concentration (IC50) in test [1] is 40 nM; in test [3] (setting [4]), 4300 nM.
For the compound `Cc1cc(=O)[nH]c(-n2ncc(C(=O)N3CCS(=O)(=O)CC3)c2C)n1` [Q-0304], the results for the IC50 in test [1] and in test [3] (setting [4]) were 40 nM and 67000 nM, respectively.
As for `O=C(c1ccn(-c2nn3cccc3c(=O)[nH]2)c1)N1CCC(C(F)(F)F)CC1` [Q-0738], the IC50 was found to be 1 nM in test [1] and 100 nM in test [3] (setting [4]).
Turning to `Cc1cc(=O)[nH]c(-n2nc(C)c(C(=O)N3CCc4ccccc4C3)c2C)n1` [Q-0375], the 50% inhibitory concentration (IC50) was determined as 20 nM in test [1] and 2500 nM in test [3] (setting [4]).
For `Cc1c(C(=O)N2CCC(C#N)(c3ccccc3)CC2)cnn1-c1nc2c(c(=O)[nH]1)CCC2` [Q-0473], the IC50 in test [1] stood at 6 nM; in test [3] (setting [4]), 92 nM.
With `Cc1c(C(=O)N2CCC(C(F)(F)F)CC2)cnn1-c1nc2ccccc2c(=O)[nH]1` [Q-0429], the values for the IC50 in test [1] and in test [3] (setting [4]) were 100 nM and 49000 nM, respectively.
Taken in the same sequence, the figures for `Cc1c(C(=O)N(Cc2ccccc2)[C@@H](C)c2ccccc2)cnn1-c1nc2c(c(=O)[nH]1)CCC2` [Q-0493] were 30 nM and 29 nM.
As for `Cc1c(C(=O)N2CCC(C(O)(C(F)(F)F)C(F)(F)F)CC2)cnn1-c1nc2c(c(=O)[nH]1)CCC2` [Q-0598], the IC50 in test [1] worked out at 4 nM; in test [3] (read-out: SK-N-BE(2) IC50, SK-N-BE (2) cells, BH4 levels by LC-MS) it was 10 nM.
For `Cc1c(C(=O)N2CCCCC2c2cccnc2)cnn1-c1nc2c(c(=O)[nH]1)CCC2` (stereo not shown) [Q-0505], the IC50 in test [1] worked out at 4 nM; in test [3] (setting [4]), 100 nM.
On to `Cc1c(C(=O)N2CC(N3CCC(F)(F)CC3)C2)cnn1-c1nn2cccc2c(=O)[nH]1` [Q-0818], for which the IC50 was found to be 2 nM in test [1] and 900 nM in test [3] (setting [4]).
Regarding `Cc1c(C(=O)N2CCc3ccccc3C2)cnn1-c1nc2ccccc2c(=O)[nH]1` [Q-0323], the concentration for half-maximal inhibition (IC50) in test [1] was 300 nM; in test [3] (setting [4]) it was 35000 nM.

The record behind these values is patent US9963462B2 (priority 2015, dated 2018).
